The values that follow come from patent US11034718B2, “C-3 novel triterpenone with C-17 reverse amide derivatives as HIV inhibitors” (HETERO LABS LIMITED, priority 2015, dated 2021).

For the test, the system named is HIV-1 strain 92HT599. Kind of test: Antiviral activity against HIV-1 strain 92HT599 in MT2 cells (p24 estimation). Particulars: HIV-1 92HT599, ~96 hours. Format: cell-based. As for the experimental part:
Example 77: Evaluation of Compounds Antiviral Activity Against HIV-1 Strain 92HT599 in MT2 Cells
MT2 cells were infected with HIV-1 strain 92HT599 (10 TCID 50/30000 cells). The infected cells were plated at the concentration of 30,000 cells per well in 96 well plate. Test compound was added to the micro plate in defined format with the final concentration of DMSO (vehicle) is not more than 1%. Incubation was carried out in CO2 incubator for ˜96 hours for viral infection. At the end of incubation period an aliquot from each well was taken for p24 estimation. The quantitation of p24 is an index for antiviral activity of the compound. Percent inhibition was calculated with reference to control values (vehicle controls). p24 estimation was carried out using Advance biosciences kit as per the procedure detailed by supplier.

Where [1] appears, read: Human immunodeficiency virus 1, 0% serum binding assay, read-out: IC50 0% serum.
[2] abbreviates: Human immunodeficiency virus 1, 40% serum binding assay, read-out: IC50 40% serum.

The structures appear in SMILES notation. Where a name gives a salt, the structure may show the parent alone. Read-outs that look alike come from different tables or passages of the source.

`CC(C)C1=C2[C@H]3CC[C@@H]4[C@@]5(C)CC[C@H](OC(=O)[C@H]6C[C@@H](C(=O)O)C6(C)C)C(C)(C)[C@@H]5CC[C@@]4(C)[C@]3(C)CC[C@@]2(NC(=O)C(C)(C)N)CC1=O` [Example 74, (1R,3S)-3-((((3aR,5aR,5bR,7aR,9S,11aR,11bR,13aS)-3a-(2-amino-2-methylpropanamido)-1-isopropyl-5a,5b,8,8,11a-pentamethyl-2-oxo-3,3a,4,5,5a,5b, 6,7,7a,8,9,10,11,11a,11b,12,13,13a-octadecahydro-2H-cyclopenta[a]chrysen-9-yl)oxy)carbonyl)-2,2-dimethylcyclobutane-1-carboxylic acid hydrochloride]: the half-maximal inhibitory concentration (IC50) under setting [1] is below 3 nM and the 50% inhibitory concentration (IC50) under setting [2] was below 50 nM.
The like results for `CC(C)C1=C2[C@H]3CC[C@@H]4[C@@]5(C)CC[C@H](OC(=O)[C@H]6C[C@@H](C(=O)O)C6(C)C)C(C)(C)[C@@H]5CC[C@@]4(C)[C@]3(C)CC[C@@]2(NC(=O)C(C)(C)NC(=O)C2(c3ccccc3)CCCC2)CC1=O` [Example 27, (1R,3S)-3-((((3aR,5aR,5bR,7aR,9S,11aR,11bR,13aS)-1-isopropyl-5a,5b,8,8,11a-pentamethyl-3a-(2-methyl-2-(1-phenylcyclopentane-1-carboxamido)propanamido)-2-oxo-3,3a,4,5,5a,5b,6,7,7a,8,9,10,11,11a,11b,12,13,13a-octadecahydro-2H-cyclopenta[a]chrysen-9-yl)oxy)carbonyl)-2,2-dimethylcyclobutane-1-carboxylic acid] were, in that order, 3.01 to 10 nM and 50 to 200 nM.
For `Cc1ccc(C(=O)NC2(C(=O)N[C@@]34CC[C@]5(C)[C@H](CC[C@@H]6[C@@]7(C)CC[C@H](OC(=O)[C@H]8C[C@@H](C(=O)O)C8(C)C)C(C)(C)[C@@H]7CC[C@]65C)C3=C(C(C)C)C(=O)C4)CCC2)cn1` [Example 43, (1R,3S)-3-((((3aR,5aR,5bR,7aR,9S,11aR,11bR,13aS)-1-isopropyl-5a,5b,8,8,11a-pentamethyl-3a-(1-(6-methylnicotinamido)cyclobutane-1-carboxamido)-2-oxo-3,3a,4,5,5a,5b,6,7,7a,8,9,10,11,11a,11b,12,13,13a-octadecahydro-2H-cyclopenta[a]chrysen-9-yl)oxy)carbonyl)-2,2-dimethylcyclobutane-1-carboxylic acid], the half-inhibitory concentration (IC50) reads like this: under setting [1], below 3 nM; under setting [2], below 50 nM.
Turning to `Cc1cccc(C(=O)NC(C)(C)C(=O)N[C@@]23CC[C@]4(C)[C@H](CC[C@@H]5[C@@]6(C)CC[C@H](OC(=O)[C@H]7C[C@@H](C(=O)O)C7(C)C)C(C)(C)[C@@H]6CC[C@]54C)C2=C(C(C)C)C(=O)C3)n1` [Example 60, (1R,3S)-3-((((3aR,5aR,5bR,7aR,9S,11aR,11bR,13aS)-1-isopropyl-5a,5b,8,8,11a-pentamethyl-3a-(2-methyl-2-(6-methylpicolinamido)propanamido)-2-oxo-3,3a,4,5,5a,5b,6,7,7a,8,9,10,11,11a,11b,12,13,13a-octadecahydro-2H-cyclopenta[a]chrysen-9-yl)oxy)carbonyl)-2,2-dimethylcyclobutane-1-carboxylic acid], the 50% inhibitory concentration (IC50) is, setting by setting: under setting [1], below 3 nM; under setting [2], below 50 nM.
The like results for `CC(C)C1=C2[C@H]3CC[C@@H]4[C@@]5(C)CC[C@H](OC(=O)[C@H]6C[C@@H](C(=O)O)C6(C)C)C(C)(C)[C@@H]5CC[C@@]4(C)[C@]3(C)CC[C@@]2(NC(=O)C(C)(C)NC(=O)c2ccco2)CC1=O` [Example 26, (1R,3S)-3-((((3aR,5aR,5bR,7aR,9S,11aR,11bR,13aS)-3a-(2-(furan-2-carboxamido)-2-methylpropanamido)-1-isopropyl-5a,5b,8,8,11a-pentamethyl-2-oxo-3,3a,4,5,5a,5b,6,7,7a,8,9,10,11,11a,11b,12,13,13a-octadecahydro-2H-cyclopenta[a]chrysen-9-yl)oxy)carbonyl)-2,2-dimethylcyclobutane-1-carboxylic acid] were, in that order, below 3 nM and 50 to 200 nM.
Take `CC(C)C1=C2[C@H]3CC[C@@H]4[C@@]5(C)CC[C@H](OC(=O)[C@H]6C[C@@H](C(=O)O)C6(C)C)C(C)(C)[C@@H]5CC[C@@]4(C)[C@]3(C)CC[C@@]2(NC(=O)C2(NC(=O)c3ccc(Cl)cc3)CCCCC2)CC1=O` [Example 48, (1R,3S)-3-((((3aR,5aR,5bR,7aR,9S,11aR,11bR,13aS)-3a-(1-(4-chlorobenzamido)cyclohexane-1-carboxamido)-1-isopropyl-5a,5b,8,8,11a-pentamethyl-2-oxo-3,3a,4,5,5a,5b,6,7,7a,8,9,10,11,11a,11b,12,13,13a-octadecahydro-2H-cyclopenta[a]chrysen-9-yl)oxy)carbonyl)-2,2-dimethylcyclobutane-1-carboxylic acid]: the IC50 under setting [1] was below 3 nM and the IC50 under setting [2] is below 50 nM.
The like results for `CC(C)C1=C2[C@H]3CC[C@@H]4[C@@]5(C)CC[C@H](OC(=O)[C@H]6C[C@@H](C(=O)O)C6(C)C)C(C)(C)[C@@H]5CC[C@@]4(C)[C@]3(C)CC[C@@]2(NC(=O)C(C)(C)NC(=O)c2ccc(Cl)c(Cl)c2)CC1=O` [Example 4, (1R,3S)-3-((((3aR,5aR,5bR,7aR,9S,11aR,11bR,13aS)-3a-(2-(3,4-dichlorobenzamido)-2-methylpropanamido)-1-isopropyl-5a,5b,8,8,11a-pentamethyl-2-oxo-3,3a,4,5,5a,5b,6,7,7a,8,9,10,11,11a,11b,12,13,13a-octadecahydro-2H-cyclopenta[a]chrysen-9-yl)oxy)carbonyl)-2,2-dimethylcyclobutane-1-carboxylic acid] were, in that order, below 3 nM and below 50 nM.
In the case of `CC(C)C1=C2[C@H]3CC[C@@H]4[C@@]5(C)CC[C@H](OC(=O)[C@H]6C[C@@H](C(=O)O)C6(C)C)C(C)(C)[C@@H]5CC[C@@]4(C)[C@]3(C)CC[C@@]2(NC(=O)C(C)(C)NC(=O)CN(C)C)CC1=O` [Example 59, (1R,3S)-3-((((3aR,5aR,5bR,7aR,9S,11aR,11bR,13aS)-3a-(2-(2-(dimethylamino)acetamido)-2-methylpropanamido)-1-isopropyl-5a,5b,8,8,11a-pentamethyl-2-oxo-3,3a,4,5,5a,5b,6,7,7a,8,9,10,11,11a,11b,12,13,13a-octadecahydro-2H-cyclopenta[a]chrysen-9-yl)oxy)carbonyl)-2,2-dimethylcyclobutane-1-carboxylic acid], the half-maximal inhibitory concentration (IC50) is below 3 nM under setting [1] and 50 to 200 nM under setting [2].

The IC50 is the midpoint of a concentration-inhibition curve.
